From PubChem BioAssay (NCI) come the findings set out here.

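Cultured in 96-well plates, cells were exposed to test compound for 48 hours across five concentrations. GI50 marks 50% less growth. The concentration for full growth arrest is given as TGI.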

Common to all, as to assay: growth of human tumour cells (NCI), 48 h
In experiment [1] the test system is HCT-116 colon.
In experiment [2] the test system is 786-0 renal.
In experiment [3] the test system is NCI-H23 lung.
The subject of experiment [4] is NCI-H460 lung.
Experiment [5] relates to HOP-62 NSCLC.
Experiment [6] has as its system SNB-19 CNS.
In experiment [7] the test system is ACHN renal.
Experiment [8] deals with HCT-15 colon.
The subject of experiment [9] is SN12C renal.
Experiment [10] deals with EKVX NSCLC.

As for `N#Cc1ccc(-c2c(-c3ncn[nH]3)sc(N3CCOCC3)c2C#N)c(F)c1`, the GI50 in [1] was 0.553 µM; in experiment [2] it was 0.457 µM; in experiment [3], 3.32 µM; in [4] it was 0.419 µM; in experiment [5], 1.05 µM; in [6] it was 1.96 µM. For the same molecule, the figures for the GI50 in [7], in experiment [8] and in [9] were 0.398 µM, 0.596 µM and 0.835 µM, respectively. Moreover, the TGI in experiment [1] was 37.6 µM; in experiment [2], 12.1 µM; in [3], above 100 µM; in experiment [4], 23.6 µM; in [5], 21.9 µM; in experiment [6] it was 38.9 µM. The TGI in [8] was 18.5 µM; in [9] it was above 100 µM.
For the molecule `C/C(=N\NC(=O)C[N+](C)(C)C)c1sc(-c2cccnc2)nc1C`, the TGI in [1], in experiment [2], in experiment [3], in [4], in [5] and in experiment [7] was above 100 µM each time. The TGI in experiment [10] is above 100 µM.
On to `[N-]=[N+]=NCCCn1c2c(c3ccc([N+](=O)[O-])cc3c1=O)C(=O)c1cc3c(cc1-2)OCO3`, for which the GI50 was below 0.01 µM in [1]; below 0.0141 µM in [2]; below 0.01 µM in [3]; below 0.01 µM in [4]; below 0.0161 µM in experiment [7]; 1.42 µM in experiment [8]. For the same molecule, the results for the GI50 in experiment [10] and in experiment [9] were 0.379 µM and below 0.0106 µM, respectively. Besides, the TGI in [1] is 1.18 µM; in experiment [2], below 0.025 µM; in [3], below 0.01 µM; in [4], 0.501 µM; in experiment [6], above 100 µM; in [7], 0.459 µM. Moreover, the TGI in experiment [8] was above 100 µM; in experiment [10] it was 3.62 µM; in [9] it was 0.95 µM.
As for `Nc1nonc1-c1nc2ccccc2n1Cc1ccc(F)cc1`, the GI50 is 4.81 µM in experiment [1]; 29.1 µM in experiment [2]; 87 µM in experiment [3]; 4.25 µM in [4]; 14.6 µM in [5]; 14.6 µM in experiment [6]. Also, the GI50 is 16 µM in [7] and 3.6 µM in experiment [8]. In addition, the TGI in [1], in experiment [2], in [3], in experiment [4], in experiment [5] and in [6] was above 100 µM each time. Further, the TGI in experiment [7] and in experiment [8] was above 100 µM in each case.
For `CCc1cccc(C(C)C)c1NC(=O)CCl`, the TGI in [1], in experiment [2], in experiment [3], in experiment [6], in experiment [7] and in experiment [8] was above 100 µM each time. The TGI in experiment [10] and in [9] was above 100 µM in each case.
Consider `Cc1cc(N(CCC#N)CCC#N)ccc1N=Nc1cc(Cl)ccc1Cl`, for which the TGI in experiment [2] amounted to 28.9 µM; in experiment [3], 28.1 µM; in [5], 35.3 µM; in experiment [6], 35.9 µM; in [7] it was 25.4 µM; in experiment [8], 6.58 µM. Moreover, the TGI came out at 26.5 µM in experiment [10] and 27.1 µM in [9].
As for `CCOc1ccccc1NC(=O)C(=O)C(/C(=N/N)C(=O)OC)c1nc2ccc([N+](=O)[O-])cc2[nH]c1=O` (stereo unspecified), the TGI in experiment [1], in experiment [2], in experiment [4], in [5], in experiment [8] and in experiment [10] was above 100 µM in each case. The TGI in [9] was above 100 µM.
Consider `Cc1coc2c1C(=O)C(=O)c1ccccc1-2`, for which the TGI in [1] turned out to be 0.879 µM; in experiment [2] it was 3.24 µM; in experiment [3], 4.09 µM; in experiment [4], 3.18 µM; in experiment [5], 3 µM; in experiment [8], 3.42 µM. In experiment [9], this molecule came in with a TGI of 2.12 µM.
On to `C/C(=N\NC(N)=S)c1ccc(C)c(C)c1`, for which the TGI in experiment [1], in experiment [2], in experiment [3], in experiment [4], in experiment [5] and in experiment [7] was above 100 µM each time. The TGI in experiment [8], in [10] and in experiment [9] was above 100 µM throughout.
Regarding `CCN(CC)c1c(-c2ccccc2)n[nH]c1C(=O)OC`, the GI50 in experiment [2] is 32.7 µM; in experiment [3], 42.4 µM; in experiment [4] it was 30.3 µM; in experiment [5], 44.6 µM; in [6], 46.4 µM; in experiment [7], 28.8 µM. Also, the GI50 in experiment [8] was 19 µM; in experiment [10], 21.2 µM; in experiment [9], 24.4 µM. Moreover, the TGI is 96.2 µM in experiment [2]; above 100 µM in experiment [3]; above 100 µM in experiment [4]; above 100 µM in experiment [5]; above 100 µM in experiment [6]; 74.3 µM in [7]. The results for the TGI in experiment [8], in experiment [10] and in experiment [9] were 40.9 µM, 56.8 µM and 40.3 µM, respectively.
Turning to `COc1cc(Cl)cc(-c2nn(-c3cccc(NC(=O)Nc4cccc(C(F)(F)F)c4)c3)cc2-c2ccncc2)c1`, the GI50 in experiment [1] was 0.754 µM; in experiment [2], 1.94 µM; in [3], 1.76 µM; in [4], 0.84 µM; in experiment [5] it was 2.81 µM; in [6] it was 2.77 µM. Further, the GI50 is 1.72 µM in experiment [7], 1.34 µM in experiment [8] and 2.06 µM in experiment [9]. The TGI is 7.61 µM in experiment [1]; 6.78 µM in [2]; 6.69 µM in [3]; 4.66 µM in experiment [4]; 13.1 µM in [5]; 35.9 µM in experiment [6]. Moreover, the TGI in experiment [7] stood at 16.2 µM; in experiment [8], 10.6 µM; in experiment [9] it was 18.5 µM.
Turning to `Cc1ccc(S(=O)(=O)N/N=C(\c2nc3ccc([N+](=O)[O-])cc3[nH]c2=O)C(O)c2ccc([N+](=O)[O-])cc2)cc1` (stereo unspecified), the TGI in experiment [2], in experiment [3], in [4], in [5], in [6] and in [7] was above 100 µM throughout. For the same molecule, the TGI in experiment [8], in experiment [10] and in experiment [9] was above 100 µM each time.
